Results taken from patent US10189843B2, “Fused pyrazole derivative having autotaxin inhibitory activity” (The University of Tokyo, priority 2014, dated 2019).

Biological target: T1, Human autotaxin enzyme (Homo sapiens, UniProt Q13822)
T1 construct: purchased R&D System
Test: Evaluation of autotaxin inhibitor, Method C (18:0 Lyso PC substrate, choline assay, Resorufin fluorescence)
Type: biochemical
Settings: Method C (Test Example 3), read-out: Inhibitory activity (enzyme inhibitory activity, IC50)
Method in brief: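 Recombinant human autotaxin with compound and 200 μM 18:0 Lyso PC (stock) in Tris-HCl pH 7.5, NaCl, MgCl2, Triton X-100, 2 h RT. Released choline detected via choline oxidase/peroxidase/Amplex-type reagent, 20 min, resorufin fluorescence 531/598 nm; % inhibition vs no-compound and no-enzyme controls, concentration-response curve.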

First: CC(=O)Nc1cc(C#N)ccc1-c1cc2n(n1)[C@@H](C)CN(C[C@H]1CNC(=O)O1)C2=O [Compound I-0338]
Second: CC(=O)Nc1cc(OC(F)(F)F)ccc1-c1cc2n(n1)[C@@H](C)CN(C[C@H]1CNC(=O)O1)C2=O [Compound I-0339]
The IC50 of the first is higher: 10 to 100 nM for the first, less than 10 nM for the second. The second is the more potent here.

First: CC(=O)NC[C@@H](O)CN1C[C@H](C)n2nc(-c3ccc(OC(F)(F)F)cc3NC(C)=O)cc2C1=O [Compound I-0340]
Second: CC(=O)Nc1cc(OC(F)(F)F)ccc1-c1cc2n(n1)[C@@H](C)CN(Cc1cccc(C(=O)O)c1)C2=O [Compound I-0345]
The IC50 of the first is higher: 10 to 100 nM for the first, less than 10 nM for the second. The second is the more potent here.

Compared with `CC(=O)Nc1cc(C#N)ccc1-c1cc2n(n1)[C@@H](C)CN(CC(=O)N(C)CCC#N)C2=O` [Compound I-0341], `C[C@H]1CN(CC(=O)N(C)CCC#N)C(=O)c2cc(-c3ccc(C#N)cc3NC(=O)CF)nn21` [Compound I-0353] is lower in IC50: 10 to 100 nM for the first, less than 10 nM for the second. The second is the more potent here.

`CNC(=O)Nc1cc(Cl)ccc1-c1cc2n(n1)[C@@H](C)CN(Cc1ccc(C#N)cc1)C2=O` [Compound I-0342] and `CC(C)Nc1cc(Cl)ccc1-c1cc2n(n1)[C@@H](C)CN(Cc1ccc(C#N)cc1)C2=O` [Compound I-0349] fall in the same range of IC50: 100 to 1000 nM for the first, 100 to 1000 nM for the second.

`CC(=O)Nc1cc(Cl)ccc1-c1cc2n(n1)[C@@H](C(F)(F)F)CN(Cc1ccc(C#N)cc1)C2=O` [Compound I-0343] and `CC(=O)Nc1cc(C#N)ccc1-c1cc2n(n1)C(CC(F)(F)F)CN(Cc1ccc(C#N)cc1)C2=O` (centres unmarked) [Compound I-0370] fall in the same range of IC50: 10 to 100 nM for the first, 10 to 100 nM for the second.

First: CC(=O)Nc1cc(C#N)ccc1-c1cc2n(n1)[C@@H](C)CN(Cc1cccc(C(=O)O)c1)C2=O [Compound I-0344]
Second: CC(=O)Nc1cc(C#N)cc(CO)c1-c1cc2n(n1)[C@@H](C)CN(Cc1ccc(C#N)cc1)C2=O [Compound I-0348]
The IC50 of the first is lower: less than 10 nM for the first, 10 to 100 nM for the second. The first is the more potent here.

`C[C@H]1CN(Cc2ccc(C#N)cc2)C(=O)c2cc(-c3c(N)cc(Cl)cc3CO)nn21` [Compound I-0346] and `C[C@H]1CN(Cc2ccc(C#N)cc2)C(=O)c2cc(-c3c(Br)cc(Cl)cc3CO)nn21` [Compound I-0361] fall in the same range of IC50: 100 to 1000 nM for the first, 100 to 1000 nM for the second.

First: CC(=O)Nc1cc(Cl)cc(CO)c1-c1cc2n(n1)[C@@H](C)CN(Cc1ccc(C#N)cc1)C2=O [Compound I-0347]
Second: CCNc1cc(Cl)cc(CO)c1-c1cc2n(n1)[C@@H](C)CN(Cc1ccc(C#N)cc1)C2=O [Compound I-0356]
The IC50 of the first is higher: 10 to 100 nM for the first, less than 10 nM for the second. The second is the more potent here.

First: C[C@H]1CN(CC(=O)N(C)CCC#N)C(=O)c2cc(-c3ccc(C#N)cc3NC(=O)C3CC3)nn21 [Compound I-0350]
Second: C[C@H]1CN(CC(=O)N(C)CC#N)C(=O)c2cc(-c3ccc(C#N)cc3NC(=O)C3CC3)nn21 [Compound I-0364]
The IC50 of the first is lower: less than 10 nM for the first, 10 to 100 nM for the second.

First: COCC(=O)Nc1cc(C#N)ccc1-c1cc2n(n1)[C@@H](C)CN(CC(=O)N(C)CCC#N)C2=O [Compound I-0351]
Second: C[C@H]1CN(CC(=O)N(C)CCC#N)C(=O)c2cc(-c3ccc(C#N)cc3NC(=O)CO)nn21 [Compound I-0360]
The IC50 of the first is lower: less than 10 nM for the first, 100 to 1000 nM for the second. The first is the more potent here.

First: C[C@H]1CN(CC(=O)N(C)CCC#N)C(=O)c2cc(-c3ccc(C#N)cc3NC(=O)CC(F)(F)F)nn21 [Compound I-0352]
Second: C[C@H]1CN(CC(=O)N(C)CCC#N)C(=O)c2cc(-c3ccc(C#N)cc3NC(=O)C(F)(F)F)nn21 [Compound I-0354]
The IC50 of the first is higher: 10 to 100 nM for the first, less than 10 nM for the second.

`N#Cc1ccc(CN2CC3CCCCCC(=O)Nc4cc(Cl)ccc4-c4cc(n3n4)C2=O)cc1` (centres unmarked) [Compound I-0355] and `N#Cc1ccc(CN2CC3CC/C=C/CC(=O)Nc4cc(Cl)ccc4-c4cc(n3n4)C2=O)cc1` (centres unmarked) [Compound I-0357] cannot be ordered by IC50: less than 10 nM for the first, less than 10 nM for the second.

Compared with `N#Cc1ccc(CN2CC3CC/C=C\CC(=O)Nc4cc(Cl)ccc4-c4cc(n3n4)C2=O)cc1` (centres unmarked) [Compound I-0358], `N#Cc1ccc(CN2CC(CC(F)(F)F)n3nc(-c4c(C#N)cc(Cl)cc4CO)cc3C2=O)cc1` (centres unmarked) [Compound I-0371] is higher in IC50: 10 to 100 nM for the first, 100 to 1000 nM for the second.

`C[C@H]1CN(CC(=O)N(C)CCC#N)C(=O)c2cc(-c3ccc(C#N)cc3NC(=O)C(C)(C)C)nn21` [Compound I-0359] and `COC(=O)Nc1cc(Cl)ccc1-c1cc2n(n1)[C@@H](C)CN(CC(=O)N(C)CC#N)C2=O` [Compound I-0363] fall in the same range of IC50: 10 to 100 nM for the first, 10 to 100 nM for the second.

`CC(=O)Nc1cc(C#N)ccc1-c1cc2n(n1)[C@@H](C)CN(CC1CCCO1)C2=O` (some centres unmarked) [Compound I-0362] and `CC(=O)Nc1cc(C#N)ccc1-c1cc2n(n1)[C@@H](C)CN(C1CCN(CC(F)(F)F)C1=O)C2=O` (some centres unmarked) [Compound I-0367] fall in the same range of IC50: 10 to 100 nM for the first, 10 to 100 nM for the second.

`C[C@H]1CN(CC(=O)N(C)CC#N)C(=O)c2cc(-c3ccc(Cl)cc3NC(=O)C3CC3)nn21` [Compound I-0365] and `CC(=O)NC1=C(c2cc3n(n2)[C@@H](C)CN(Cc2ccc(C#N)cc2)C3=O)C(=O)CC(C(F)(F)F)C1` (some centres unmarked) [Compound I-0368] fall in the same range of IC50: 10 to 100 nM for the first, 10 to 100 nM for the second.

Compared with `CC(=O)NC1=C(c2cc3n(n2)[C@@H](C)CN(Cc2ccc(C#N)cc2)C3=O)CCC(C(F)(F)F)C1` (some centres unmarked) [Compound I-0366], `CC(=O)NC1=C(c2cc3n(n2)[C@@H](C)CN(Cc2ccc(C#N)cc2)C3=O)C(O)CC(C(F)(F)F)C1` (some centres unmarked) [Compound I-0369] is higher in IC50: 10 to 100 nM for the first, 100 to 1000 nM for the second.

`CCCCC1CN(Cc2ccc(C#N)cc2)C(=O)c2cc(-c3ccc(S(F)(F)(F)(F)F)cc3)nn21` (centres unmarked) [Compound I-0372] was tested, and the IC50 was 100 to 1000 nM.
